# Assays:
# Giardia intestinalis [1] = assay: Giardicidal activity against Giardia intestinalis IMSS:0696:1 compound treated for 48 hrs followed by incubation for 48 hrs in compound-free medium by cell counting; format: functional, organism-based; conditions: Giardia duodenalis, IMSS:0696:1, 48 h
# Giardia intestinalis [2] = assay: Ratio of metronidazole IC50 to compound IC50 for Giardia intestinalis IMSS:0696:1 compound treated for 48 hrs followed by incubation for 48 hrs in compound-free medium by cell counting; format: functional, Giardia duodenalis
# Trichomonas vaginalis [3] = assay: Trichomonicidal activity against Trichomonas vaginalis GT3 compound treated for 48 hrs followed by incubation for 48 hrs in compound-free medium by cell counting; format: functional, organism-based; conditions: GT3, 48 h
# [4] = Cytotoxicity against African green monkey Vero cells after 48 hrs by MTT assay; format: cell-based; conditions: chlorocebus sabaeus
# Giardia intestinalis [5] = assay: Ratio of nitazoxanide IC50 to compound IC50 for Giardia intestinalis IMSS:0696:1 compound treated for 48 hrs followed by incubation for 48 hrs in compound-free medium by cell counting; format: functional, Giardia duodenalis
# Giardia duodenalis [6] = assay: Inhibition of Giardia intestinalis fructose 1,6-bisphosphate aldolase at 400 nM after 2 hrs by spectrophotometry
# [7] = Selectivity index, ratio of CC50 for african green monkey Vero cells to IC50 for Giardia intestinalis IMSS:0696:1; format: functional
# Giardia duodenalis [8] = assay: Ratio of nitazoxanide IC50 to compound IC50 for Giardia intestinalis fructose 1,6-bisphosphate aldolase at 400 nM after 2 hrs by spectrophotometry
# Trichomonas vaginalis [9] = assay: Ratio of metronidazole IC50 to compound IC50 for Trichomonas vaginalis GT3 compound treated for 48 hrs followed by incubation for 48 hrs in compound-free medium by cell counting; format: functional
# Trichomonas vaginalis [10] = assay: Ratio of nitazoxanide IC50 to compound IC50 for Trichomonas vaginalis GT3 compound treated for 48 hrs followed by incubation for 48 hrs in compound-free medium by cell counting; format: functional
Compound,IC50 (Giardia intestinalis [1]; read-out: IC50) [µM],Ratio IC50 (Giardia intestinalis [2]),IC50 (Trichomonas vaginalis [3]) [µM],CC50 at 48 h [4] [µM],Ratio IC50 (Giardia intestinalis [5]),inhibition (Giardia duodenalis [6]) [%],IC50 (Giardia intestinalis [1]; read-out: pIC50 (converted)) [µM],Ratio CC50/IC50 [7],Ratio IC50 (Giardia duodenalis [8]),Ratio IC50 (Trichomonas vaginalis [9]),Ratio IC50 (Trichomonas vaginalis [10])
O=C(CN1CCCC1)Nc1ncc([N+](=O)[O-])s1,0.178,24,6.1,> 1000,5,21,,,,,
O=C(CN1CCOCC1)Nc1ncc([N+](=O)[O-])s1,0.151,35,0.305,> 1000,8,54,0.151,6622,2,,
CC(=O)Nc1ncc([N+](=O)[O-])s1 [NITHIAMIDE],,,,> 1000,,-0,,,,,
Cc1ncc([N+](=O)[O-])n1CCO [METRONIDAZOLE],,,,367,,,,,,,
Nc1ncc([N+](=O)[O-])s1,,,,,,-0,,,,,
CC(=O)Oc1ccccc1C(=O)Nc1ncc([N+](=O)[O-])s1,,,,,,31,,,,,
CCN(CC)CC(=O)Nc1nc2ccc([N+](=O)[O-])cc2s1,2.03,,3.21,> 1000,,-0,,,,,
O=C(Nc1ncc([N+](=O)[O-])s1)c1ccccc1O [TIZOXANIDE],,,,388,,25,,,,,
O=C(CN1CCCCC1)Nc1ncc([N+](=O)[O-])s1,0.219,,2.04,> 1000,,5,,,,,
O=C(CN1CCCCC1)Nc1nc2ccc([N+](=O)[O-])cc2s1,2.31,,3.43,> 1000,,-0,,,,,
O=C(CN1CCCC1)Nc1nc2ccc([N+](=O)[O-])cc2s1,0.298,,0.221,> 1000,,10,,,,,
O=C(CN1CCOCC1)Nc1nc2ccc([N+](=O)[O-])cc2s1,3.35,,0.331,> 1000,,35,,,,,
Nc1nc2ccc([N+](=O)[O-])cc2s1,24.4,,0.625,607,,-0,,,,13,3
CCN(CC)CC(=O)Nc1ncc([N+](=O)[O-])s1,0.122,44,2.25,> 1000,10,66,0.123,8196,2,,

# From ChEMBL document CHEMBL3400142, “Synthesis of nitro(benzo)thiazole acetamides and in vitro antiprotozoal effect against amitochondriate parasites Giardia intestinalis and Trichomonas vaginalis” (Bioorg Med Chem, 2015)
